Test results: patent publication US4348410A, “Cyclohexane carboxylic acid derivatives” (Nippon Chemiphar Co., Ltd., priority 1979, dated 1982)

What was measured:
trypsin = molecular target: T1, trypsin (Bos taurus, UniProt P00760); experiment: Inhibitory effects on trypsin (hydrolysis of p-tosylarginine methyl ester); format: biochemical; details: 37° C., 10 minutes; concentration not given
T1 sequence (P00760 24-246): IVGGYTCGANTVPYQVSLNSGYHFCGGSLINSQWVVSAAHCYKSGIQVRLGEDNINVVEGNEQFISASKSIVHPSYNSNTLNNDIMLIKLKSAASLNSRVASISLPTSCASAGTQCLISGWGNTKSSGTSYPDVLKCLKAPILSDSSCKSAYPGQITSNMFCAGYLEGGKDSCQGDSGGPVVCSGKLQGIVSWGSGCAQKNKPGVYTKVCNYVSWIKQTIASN
Protocol: In particular, inhibitory effects of the compounds on hydrolysis of p-tosylarginine methyl ester by trypsin were examined (incubated at 37° C. for 10 minutes).

chymotrypsin = chymotrypsin (Bos taurus, UniProt P00766); experiment: Inhibitory effects on chymotrypsin (hydrolysis of N-acetyl-L-tyrosine ethyl ester); format: biochemical; details: 37° C., 10 minutes; concentration not given
Protocol: The compounds of the formula (I) have excellent inhibitory effects on protease. The inhibitory effects were determined by the following methods: Inhibitory effects on the compounds of chymotrypsin were determined according to the method described by M. […] In particular, inhibitory effects of the compounds on hydrolysis of N-acetyl-L-tyrosine ethyl ester by chymotrypsin were examined (incubated at 37° C. for 10 minutes).

thrombin = thrombin (Bos taurus, UniProt P00735); experiment: Inhibitory effects on thrombin (hydrolysis of p-tosylarginine methyl ester); format: biochemical; details: 37° C., 10 minutes; concentration not given
Protocol: The compounds of the formula (I) have excellent inhibitory effects on protease. The inhibitory effects were determined by the following methods:
Inhibitory effects of the compounds on thrombin were determined according to the method described by M. Muramatsu et al (The Journal of Biochemistry, Volume 65 (1), 17 (1969)). In particular, inhibitory effects of the compounds on hydrolysis of p-tosylarginine methyl ester by thrombin were examined (incubated at 37° C. for 10 minutes).

urokinase = urokinase (Homo sapiens, UniProt P00749); experiment: Inhibitory effects on urokinase (hydrolysis of N-acetylglycyl lysine methyl ester); format: biochemical; details: 37° C., 10 minutes; concentration not given
Protocol: The compounds of the formula (I) have excellent inhibitory effects on protease. The inhibitory effects were determined by the following methods: Inhibitory effects of the compounds on urokinase were determined according to the method described by A. J. Joeson et al (Throm. […]. 21, 259-272 (1969)). In particular, inhibitory effects of the compounds on hydrolysis of N-acetylglycyl lysine methyl ester by urokinase were determined (incubated at 37° C. for 10 minutes).

Shay ulcers = Shay ulcers (pylorus ligation); format: in vivo, Male Sprague-Dawley strain rats; details: for Ulcer Grade 0 (number of rats): 0=no lesion; for Ulcer Grade 1 (number of rats): 1=hemorrhagic suffusion; for Ulcer Grade 2 (number of rats): 2=1-5 small ulcers (<3 mm); for Ulcer Grade 3 (number of rats): 3=many small ulcers (more than 5) or 1 ulcer of marked size; for Ulcer Grade 4 (number of rats): 4=many ulcers of marked size; for Ulcer Grade 5 (number of rats): 5=perforated ulcer
Protocol: The rats were sacrificed 18 hours later by an overdose of ether and the stomach removed. The stomach was incised along the greater curvature and the surface area of each lesion in forestomach was measured by the naked eye. […] 4=many ulcers of marked size 5=perforated ulcer The test drugs were given intraperitoneally, immediately after pylorus ligation.

ileum of a guinea pig = experiment: Anti-histamine effect: contraction of ileum induced by histamin dihydrochloride; details: 1~5 μg; 10^-6 g/ml histamin dihydrochloride
[1] = test system: ileum of a guinea pig, sensitized with egg albumin; experiment: Contraction of ileum of a guinea pig sensitized with egg albumin, antigen-induced; details: 0.50 μg; with 250 μg/ml egg albumin as antigen
[2] = test system: carrageenin-induced inflammation; experiment: Carrageenin-induced inflammation; details: Rattus norvegicus, ip, read-out: ED50, inhibition of carrageenin-induced inflammation
plasmin = details: A. Okano et al, J. Med. Chem., Vol. 15, No. 3, 247 (1972); cited from earlier work
acetic acid ulcers = experiment: Acetic acid ulcers; format: in vivo, Male Sprague-Dawley strain rats; details: for Ulcer Grade 1 (number of rats): ulcer area 0-10 mm^2; for Ulcer Grade 2 (number of rats): ulcer area 11-20 mm^2; for Ulcer Grade 3 (number of rats): ulcer area 21-30 mm^2; for Ulcer Grade 4 (number of rats): ulcer area 31-40 mm^2; for Ulcer Grade 5 (number of rats): ulcer area >40 mm^2
Protocol: Male Sprague-Dawley strain rats, weighing about 200 g were used. Under ether anesthesia 10% acetic acid solution (0.05 ml) was injected carefully between the serous membrane and the muscle near the pylorus, and the abdomen was closed. Thereafter, the animals were maintained under conditions and administered 1 ml/100 g of each test drug dissolved or suspended in 0.5% carboxymethylcellulose solution p.o. daily×10 starting from the next day of the operation. On the 11th day, the rats were sacrificed under ether anesthesia, and the stomachs were removed. The area of the ulcer was measured and graded into 5 degrees as an ulcer index according to the following method: […]

Cl.N=C(N)NC[C@H]1CC[C@H](C(=O)Oc2ccccc2)CC1 [Compound 3]
Inhibition (%) Trypsin (trypsin): 42%
Inhibition (%) Chymotrypsin (chymotrypsin): 48%
Inhibition (%) Thrombin (thrombin): 30%
Inhibition (%) Urokinase (urokinase): 52%
Ulcer Grade 0 (number of rats) (Shay ulcers; 400 mg/kg i.p.): 11
Ulcer Grade 1 (number of rats) (Shay ulcers; 400 mg/kg i.p.): 4
Ulcer Grade 2 (number of rats) (Shay ulcers; 400 mg/kg i.p.): 5
Ulcer Grade 3 (number of rats) (Shay ulcers; 400 mg/kg i.p.): 0
Ulcer Grade 4 (number of rats) (Shay ulcers; 400 mg/kg i.p.): 0
Ulcer Grade 5 (number of rats) (Shay ulcers; 400 mg/kg i.p.): 0
inhibition of the contraction of the ileum induced by histamin dihydrochloride (ileum of a guinea pig): inhibited completely
inhibition of the contraction of the ileum sensitized with egg albumin [1]: inhibited completely

N=C(N)NC[C@H]1CC[C@H](C(=O)Oc2ccccc2)CC1
ED50 [2]: ~200 mg/kg

N=C(N)NCC1CCC(C(=O)O)CC1 (stereo not shown) [4-guanidinomethylcyclohexanecarboxylic acid]
anti-plasmin effects (plasmin): little anti-plasmin effects

NC[C@H]1CC[C@H](C(=O)O)CC1 [Tranexamic acid, trans-4-aminomethylcyclohexane carboxylic acid]
anti-plasmin effects (plasmin): excellent anti-plasmin effects

Cl.NC[C@H]1CC[C@H](C(=O)Oc2ccc(CCC(=O)O)cc2)CC1 [Compound A, 4(2hydroxycarbonylethyl)phenyl trans4-aminomethylcyclohexanecarboxylate hydrochloride, reference compound]
Inhibition (%) Trypsin (trypsin): 65%
Inhibition (%) Chymotrypsin (chymotrypsin): 0%
Inhibition (%) Thrombin (thrombin): 30%
Inhibition (%) Urokinase (urokinase): 32%
Ulcer Grade 0 (number of rats) (Shay ulcers; 150 mg/kg i.p.): 2
Ulcer Grade 1 (number of rats) (Shay ulcers; 150 mg/kg i.p.): 0
Ulcer Grade 2 (number of rats) (Shay ulcers; 150 mg/kg i.p.): 3
Ulcer Grade 3 (number of rats) (Shay ulcers; 150 mg/kg i.p.): 1
Ulcer Grade 4 (number of rats) (Shay ulcers; 150 mg/kg i.p.): 4
Ulcer Grade 5 (number of rats) (Shay ulcers; 150 mg/kg i.p.): 0
Ulcer Grade 0 (number of rats) (Shay ulcers; 300 mg/kg i.p.): 6
Ulcer Grade 1 (number of rats) (Shay ulcers; 300 mg/kg i.p.): 0
Ulcer Grade 2 (number of rats) (Shay ulcers; 300 mg/kg i.p.): 0
Ulcer Grade 3 (number of rats) (Shay ulcers; 300 mg/kg i.p.): 1
Ulcer Grade 4 (number of rats) (Shay ulcers; 300 mg/kg i.p.): 2
Ulcer Grade 5 (number of rats) (Shay ulcers; 300 mg/kg i.p.): 1
Ulcer Grade 1 (number of rats) (acetic acid ulcers; 250 mg/kg p.o. daily×10): 4
Ulcer Grade 2 (number of rats) (acetic acid ulcers; 250 mg/kg p.o. daily×10): 8
Ulcer Grade 3 (number of rats) (acetic acid ulcers; 250 mg/kg p.o. daily×10): 3
Ulcer Grade 4 (number of rats) (acetic acid ulcers; 250 mg/kg p.o. daily×10): 2
Ulcer Grade 5 (number of rats) (acetic acid ulcers; 250 mg/kg p.o. daily×10): 0
Ulcer Grade 1 (number of rats) (acetic acid ulcers; 300 mg/kg p.o. daily×10): 2
Ulcer Grade 2 (number of rats) (acetic acid ulcers; 300 mg/kg p.o. daily×10): 2
Ulcer Grade 3 (number of rats) (acetic acid ulcers; 300 mg/kg p.o. daily×10): 2
Ulcer Grade 4 (number of rats) (acetic acid ulcers; 300 mg/kg p.o. daily×10): 1
Ulcer Grade 5 (number of rats) (acetic acid ulcers; 300 mg/kg p.o. daily×10): 1
Ulcer Grade 1 (number of rats) (acetic acid ulcers; 500 mg/kg p.o. daily×10): 7
Ulcer Grade 2 (number of rats) (acetic acid ulcers; 500 mg/kg p.o. daily×10): 6
Ulcer Grade 3 (number of rats) (acetic acid ulcers; 500 mg/kg p.o. daily×10): 1
Ulcer Grade 4 (number of rats) (acetic acid ulcers; 500 mg/kg p.o. daily×10): 0
Ulcer Grade 5 (number of rats) (acetic acid ulcers; 500 mg/kg p.o. daily×10): 1
